In patent US9573975B2, “Melanoma antigen peptide and uses thereof” (INSERM (INSTITUT NATIONAL DE LA SANTE ET DE LA RECHERCHE …, priority 2012, dated 2017):

Experiments:
[1] = system: CD4 T cells in PBMC from healthy donors; assay: PBMC from healthy donors stimulated with MELOE-1, restimulated with overlapping peptides, CD4/TNF-α staining; type: cell-based, human; conditions: for healthy donors in whom CD4 responses against the region were detected: seven healthy donors, TNFα production
Method: FIG. 1: (A) Percentages of TNF-α producing CD4 T cells among positive microcultures. Fourteen days after PBMC stimulation with MELOE-1 whole polypeptide (2-46), microcultures were re-stimulated with each indicated peptide during 5 hours. TNF-α production was then assessed by a double labeling TNF-α-CD4. Results were analyzed with a non-parametric test (Kruskal-Wallis) followed by a Dunns post-test. (B) Frequency of microcultures containing CD4 T cells specific for MELOE-1 peptides (assessed by TNF-α intracellular staining after re-stimulation with the 4 indicated peptides). 624 microcultures (from 7 healthy donors) were analyzed by a contingency table followed by a Fisher exact test.
PBMC from healthy donors were stimulated with 10 μM of MELOE-1. After 14 days, the presence of CD4 T cells specific for the different regions of MELOE-1 was assessed by restimulating cells with MELOE-12-21, MELOE-111-30, MELOE-118-37 and MELOE-126-46 peptides, followed by CD4/TNF-α double staining and flow cytometry analysis. Between brackets is indicated the mean % of TNF-α producing CD4 T cells, in positive microcultures. NA: not available.
(§1) PBMC from healthy donors or melanoma patients (2·10^5 cells/well) were cultured for 14 days with 10 μM of MELOE-1 whole antigen (46 amino acids) in RPMI medium supplemented with 8% HS, 50 IU/ml of rIL-2 (Chiron, France) and L-Glutamin, in 96-well multiplates. Micro cultures were then restimulated individually with each overlapping peptide (MELOE-12-21, MELOE-111-30, MELOE-118-37, MELOE-126-46 or MELOE-122-46 for melanoma patients) in the presence of 10 μg/mL brefeldin A for 5 hours and the percentage of CD4^+ specific T cells was assessed by TNF-α, IFN-γ or IL-4 intracellular staining A negative control without peptide was included in all experiments.
(§2) Lymphocytes were stimulated for 5 hours in the presence of brefeldin A (10 μg/mL) either with peptide alone (10 μM) in an autopresentation assay or with B-EBV or HLA-class II expressing melanoma cells pulsed 2 hours with the cognate peptide, at a ratio 1:2. In some experiments, blocking mAb against HLA-DP (clone B7.21 from Dr Charron, UMR940, Paris), HLA-DQ (clone SPVL3, Beckman Coulter) or HLA-DR (clone L243, BD Biosciences) were added at a concentration of 12.5 μg/ml. Cells were then stained with APC-conjugated anti-CD4 mAb, fixed with 4% paraformaldehyde, labeled with PE-conjugated anti-cytokine mAb and analyzed by flow cytometry.
Our purpose was to look for the existence of class II helper epitopes all along MELOE-1 sequence (SEQ ID NO: 20), in order to document the immunogenicity of the different regions of this melanoma antigen. We stimulated 2·10^7 PBMC from seven healthy donors with MELOE-1 whole antigen and tested, after a 14-day culture period the presence of CD4 T cells specific for each region of the protein. Microcultures were screened for TNFα production by CD4+ T cells, after restimulation with four MELOE-1 derived overlapping peptides (Table I), in an autopresentation assay. […] On the contrary, the central region 18-37, containing an already described DR11-restricted epitope (24-37) located just at the end of this 20-mer peptide (Rogel et al., 2011), induced specific responses in microcultures deriving from only 2/7 donors (HD9 and HD17, both expressing the DR11 element). In these two donors, we detected 6 and 7% of positive microcultures, containing between 0.6 to 3.7% of TNFα producing CD4 T cells.

[2] = system: CD4 T cells in PBMC from melanoma patients; assay: PBMC from melanoma patients stimulated with MELOE-1, restimulated with peptides, CD4/IFN-γ and CD4/IL4 staining; type: cell-based, human; conditions: for Th1 responses, share of tested microcultures: of 576 tested microcultures, melanoma patients; for melanoma patients with CD4 specific responses (mainly Th1, IFN-g production) / melanoma patients with Th2 responses: responding/tested patients; for melanoma patients with Th2 responses: IL4
Method: FIG. 2: (A) Percentages of cytokine producing CD4 T cells among positive microcultures. Fourteen days after PBMC stimulation with MELOE-1 whole polypeptide (2-46), microcultures were re-stimulated with each indicated peptide during 5 hours. IFN-γ (left panel) and IL4 (right panel) production was then assessed by a triple labeling IFN-γ-IL4-CD4. Results were analyzed with a non-parametric test (Kruskal-Wallis) followed by a Dunns post-test. (B) Frequency of microcultures containing CD4 T cells specific for MELOE-1 peptides (assessed by IFN-γ or IL4 intracellular staining after re-stimulation with the 3 indicated peptides). 576 microcultures (from 10 melanoma patients) were analyzed by a contingency table followed by a Fisher exact test.
PBMC from melanoma patients were stimulated with 10 μM of MELOE-1. After 14 days, the presence of CD4 T cells specific for the different regions of MELOE-1 was assessed by restimulating cells with MELOE-12-21, MELOE-111-30 and MELOE-122-46 peptides, followed by CD4/IFN-γ double staining for the detection of Th1 responses, and by CD4/IL4 double staining for Th2 responses. Between brackets is indicated the mean % of cytokine producing CD4 T cells, in positive microcultures.
as §1, §2
In order to confirm the immunogenicity of each MELOE-1 regions in melanoma patients, we stimulated melanoma patients PBMC with the MELOE-1 whole protein, and tested the reactivity of stimulated lymphocytes towards the three most immunogenic regions: 2-21, 11-30, and 22-46. For this study, instead of challenging microcultures with the 18-37 peptide, that appeared poorly immunogenic, we extended the C-terminus region from 26-46 to 22-46, in order to also detect responses to our previously described HLA-DR11-restricted epitope (24-37). […] We tested the induction of CD4 specific responses from MELOE-1 stimulated PBMC of 10 melanoma patients. We documented CD4 responses specific for the central region of MELOE-1 (11-30) for 7/9 patients, whereas responses specific for MELOE-12-21 and MELOE-122-46 were respectively detected in 4/9 and 5/9 patients (Table III). These responses were mainly Th1 responses (IFN-g production) while less frequent Th2 responses specific for the three regions of MELOE-1 were detected in 3/9 patients for MELOE-12-21, 2/9 patients for MELOE-111-30 and 5/9 patients for MELOE-122-46 (Table III). […] Concerning Th2 responses, much less frequent, the C-term region appeared to induce more frequently the growth of IL-4 producing CD4 T cells than the two other regions (FIG. 2A). […]

| Sequence | mean % of TNF-α producing CD4 T cells, in positive microcultures ([1]; donor HD24) | mean % of TNF-α producing CD4 T cells, in positive microcultures ([1]; donor HD27) | frequency of positive microcultures versus the three other regions of MELOE-1 ([1]; healthy donors, Fisher exact test, p<0.0001) | healthy donors in whom CD4 responses against the region were detected [1] | mean % of cytokine producing CD4 T cells, in positive microcultures (IFN-γ, Th1) ([2]; Pt ≠ 1) | mean % of cytokine producing CD4 T cells, in positive microcultures (IL4, Th2) ([2]; Pt ≠ 1) | mean % of cytokine producing CD4 T cells, in positive microcultures (IFN-γ, Th1) ([2]; Pt ≠ 2) | mean % of cytokine producing CD4 T cells, in positive microcultures (IFN-γ, Th1) ([2]; Pt ≠ 3) | mean % of cytokine producing CD4 T cells, in positive microcultures (IFN-γ, Th1) ([2]; Pt ≠ 4) | mean % of cytokine producing CD4 T cells, in positive microcultures (IFN-γ, Th1) ([2]; Pt ≠ 5) | mean % of cytokine producing CD4 T cells, in positive microcultures (IFN-γ, Th1) ([2]; Pt ≠ 6) | mean % of cytokine producing CD4 T cells, in positive microcultures (IFN-γ, Th1) ([2]; Pt ≠ 8) | mean % of cytokine producing CD4 T cells, in positive microcultures (IL4, Th2) ([2]; Pt ≠ 9) | Th1 responses, share of tested microcultures [2] [%] | melanoma patients with CD4 specific responses (mainly Th1, IFN-g production) [2] | melanoma patients with Th2 responses [2] | positive microcultures ([1]; healthy donor HD28) [%] | mean % of cytokine producing CD4 T cells, in positive microcultures (IL4, Th2) ([2]; Pt ≠ 4) | mean % of cytokine producing CD4 T cells, in positive microcultures (IL4, Th2) ([2]; Pt ≠ 5) |
| --- | --- | --- | --- | --- | --- | --- | --- | --- | --- | --- | --- | --- | --- | --- | --- | --- | --- | --- | --- |
| TSREQFLPSEGAACPPWHPS [MELOE-111-30] | (2% ± 1.4) | (5% ± 3.4) | significantly higher | each tested donor | (1.4% ± 0.7) | (1%) | (1.6% ± 1.2) | (16.2% ± 33.2) | (0.9% ± 0.5) | (1.5% ± 1.1) | (1.5% ± 1.9) | (2.9% ± 0.04 ) | (0.6% ± 0.09) | 10.8 | 7/9 | 2/9 |  |  |  |
| SCVGYPDEATSREQFLPSEG (SCVGYPDEATSREQFLPSEC) [MELOE-12-21] |  |  |  | 6/7 | (0.7%) |  | (0.8% ± 0.2) | (1.7% ± 2.9) |  | (0.6%) |  |  | (0.6%) | 3.3 | 4/9 | 3/9 | 62 | (0.7%) | (0.7% ± 0.1) |
